The results in this text go back to patent US20050197350A1, “Novel quinoline, tetrahydroquinazoline, and pyrimidine derivatives and methods of treatment related to the use thereof” (TAISHO PHARMACEUTICAL CO., LTD., priority 2003, published 2005).

The test system of the first test is MCH receptors. In words: MCH receptor activity class (method not given).
Details: not given
On to `Cc1cc(N(C)C)nc(N[C@H]2CC[C@@H](NC(=O)c3cccc(Cl)c3)CC2)n1` [Example 2567, 3-chloro-N-(cis-4-{[4-(dimethylamino)-6-methylpyrimidin-2-yl]amino}cyclohexyl)benzamide], for which the class turned out to be 1.
Same read-out and setting: the same measure for `Cc1ccc(C(=O)N[C@H]2CC[C@@H](Nc3nc(C)cc(N(C)C)n3)CC2)cc1` [Example 2565, N-(cis-4-{[4-(dimethylamino)-6-methylpyrimidin-2-yl]amino}cyclohexyl)-4-methylbenzamide]: 1.

The test is the same for the next values; noted with them: MCH receptor activity class 1-3 (percent of control at 10^-7 M or IC50).
As for `CCCc1ccccc1NC(=O)NC[C@H]1CC[C@@H](Nc2cc(N(C)C)c3ccccc3n2)CC1` [compound 2382], the class is 3 (Class 3 The value of percent of control at 10^−7 M was more than 60% or the value of IC50 was more than 200 nM.).

The test is the same for the next values; noted with them: MCH receptor; class by percent of control at 10^-7 M or IC50.
Take `CSc1ncccc1C(=O)N[C@H]1CC[C@@H](Nc2cc(N(C)C)c3ccccc3n2)CC1` [compound 42]: the class was 3 (Class 3 The value of percent of control at 10^−7 M was more than 60% or the value of IC50 was more than 200 nM.).
On to `CN(C)c1cc(N[C@H]2CC[C@@H](NC(=O)c3ccccc3)CC2)nc2ccccc12` [compound 93], for which the class is on record as 3 (Class 3 The value of percent of control at 10^−7 M was more than 60% or the value of IC50 was more than 200 nM.).

The same test, now with this note: activity class 1-3: percent of control at 10^-7 M or IC50.
For `CN(C)c1ccnc(N[C@H]2CC[C@@H](NC(=O)Oc3ccc(Br)cc3)CC2)n1` [compound 1623], the class is reported as 3 (Class 3 The value of percent of control at 10^−7 M was more than 60% or the value of IC50 was more than 200 nM.).
Same read-out and setting: as for `CCOC(=O)N[C@H]1CC[C@@H](Nc2cc(N(C)C)c3ccccc3n2)CC1` [compound 1547], the figure is 3 (Class 3 The value of percent of control at 10^−7 M was more than 60% or the value of IC50 was more than 200 nM.); as for `CN(C)c1nc(N[C@H]2CC[C@@H](NC(=O)OCC(Cl)(Cl)Cl)CC2)nc2c1CCCC2` [compound 1598], 3 (Class 3 The value of percent of control at 10^−7 M was more than 60% or the value of IC50 was more than 200 nM.).
Consider `Cc1ccc(OC(=O)N[C@H]2CC[C@@H](Nc3nccc(N(C)C)n3)CC2)cc1` [compound 1634], for which the class is listed as 3 (Class 3 The value of percent of control at 10^−7 M was more than 60% or the value of IC50 was more than 200 nM.).

The test is the same for the next values; noted with them: class 1-3 by percent of control at 10^-7 M or IC50.
For the compound `CN(C)c1nc(N[C@H]2CC[C@@H](NC(=O)c3ccc(F)c(Cl)c3)CC2)nc2c1CCCC2` [compound 509], the class is reported as 1 (Class 1: The value of percent of control at 10^−7 M was less than 40% or the value of IC50 was less than 50 nM.).
On the same count and under the same terms, as for `CCCSc1ncccc1C(=O)NC[C@H]1CC[C@@H](Nc2nccc(N(C)C)n2)CC1` [compound 429], the figure is 2 (Class 2: The value of percent of control at 10^−7 M was from 40% to 60% or the value of IC′50 was from 50 nM to 200 nM.); as for `CC(=O)OC(C(=O)N[C@H]1CC[C@@H](Nc2nc3c(c(N(C)C)n2)CCCC3)CC1)c1ccccc1` (relative stereo) [compound 528], 1 (Class 1: The value of percent of control at 10^−7 M was less than 40% or the value of IC50 was less than 50 nM.).

Still in this test, the particulars now being: class by percent of control at 10^-7 M or IC50.
`COc1cc(OC)cc(C(=O)N[C@H]2CC[C@@H](Nc3nccc(N(C)C)n3)CC2)c1` [compound 294, N-(cis-4-{[4-(dimethylamino)pyrimidin-2-yl]amino}cyclohexyl)-3,5-dimethoxybenzamide]: the class was 1 (Class 1: The value of percent of control at 10^−7 M was less than 40% or the value of IC50 was less than 50 nM.).
Consider `CCC(Oc1ccccc1)C(=O)N[C@H]1CC[C@@H](Nc2nccc(N(C)C)n2)CC1` (relative stereo) [compound 266, N-(cis-4-{[4-(dimethylamino)pyrimidin-2-yl]amino}cyclohexyl)-2-phenoxybutanamide], for which the class is on record as 2 (Class 2: The value of percent of control at 10^−7 M was from 40% to 60% or the value of IC′50 was from 50 nM to 200 nM.).
Consider `CN(C)c1nc(N[C@H]2CC[C@@H](NC(=O)NCc3ccc(F)cc3)CC2)nc2c1CCCC2` [compound 1725], for which the class is 2 (Class 2: The value of percent of control at 10^−7 M was from 40% to 60% or the value of IC′50 was from 50 nM to 200 nM.).
With `Cc1noc(-c2ccccc2)c1NC(=O)NC[C@H]1CC[C@@H](Nc2nc3c(c(N(C)C)n2)CCCC3)CC1` [compound 2483], the class was 3 (Class 3 The value of percent of control at 10^−7 M was more than 60% or the value of IC50 was more than 200 nM.).
Turning to `Cc1cccc(C(=O)N[C@H]2CC[C@@H](Nc3nccc(N(C)C)n3)CC2)c1` [compound 268, N-(cis-4-{[4-(dimethylamino)pyrimidin-2-yl]amino}cyclohexyl)-3-methylbenzamide], the class is 2 (Class 2: The value of percent of control at 10^−7 M was from 40% to 60% or the value of IC′50 was from 50 nM to 200 nM.).
On the same count and under the same terms, the same measure for `CN(C)c1ccnc(N[C@H]2CC[C@@H](NC(=O)c3csc(-c4cccs4)n3)CC2)n1` [compound 364, N-(cis-4-{[4-(dimethylamino)pyrimidin-2-yl]amino}cyclohexyl)-2-(2-thienyl)-1,3-thiazole-4-carboxamide]: 1 (Class 1: The value of percent of control at 10^−7 M was less than 40% or the value of IC50 was less than 50 nM.); for `CN(C)c1cc(N[C@H]2CC[C@@H](CNCc3ccc(N(C)CCC#N)cc3)CC2)nc2ccccc12` [compound 1202]: 3 (Class 3 The value of percent of control at 10^−7 M was more than 60% or the value of IC50 was more than 200 nM.).
For `CCSc1ncccc1C(=O)NC[C@H]1CC[C@@H](Nc2nccc(N(C)C)n2)CC1` [compound 381], the class is given as 3 (Class 3 The value of percent of control at 10^−7 M was more than 60% or the value of IC50 was more than 200 nM.).
The same measure, in the same setting: the same measure for `COc1ccc2[nH]cc(CNC[C@H]3CC[C@@H](Nc4nccc(N(C)C)n4)CC3)c2c1` [compound 1248]: 2 (Class 2: The value of percent of control at 10^−7 M was from 40% to 60% or the value of IC′50 was from 50 nM to 200 nM.).
Still for that read-out and setting: as for `Cc1ccnc(SCC(=O)N[C@H]2CC[C@@H](Nc3cc(N(C)C)c4ccccc4n3)CC2)n1` [compound 696], the figure is 3 (Class 3 The value of percent of control at 10^−7 M was more than 60% or the value of IC50 was more than 200 nM.).
Same read-out and setting: the same measure for `CN(C)c1nc(N[C@H]2CC[C@@H](NC(=O)Nc3cc(F)cc(C(F)(F)F)c3)CC2)nc2c1CCCC2` [compound 1872]: 3 (Class 3 The value of percent of control at 10^−7 M was more than 60% or the value of IC50 was more than 200 nM.); for `Cc1ccc(-c2ccc(C(=O)N[C@H]3CC[C@@H](Nc4cc(N(C)C)c5ccccc5n4)CC3)o2)c([N+](=O)[O-])c1` [compound 687]: 3 (Class 3 The value of percent of control at 10^−7 M was more than 60% or the value of IC50 was more than 200 nM.); for `COc1ccc(CNC[C@H]2CC[C@@H](Nc3nccc(N(C)C)n3)CC2)c2ccccc12` [compound 1247]: 1 (Class 1: The value of percent of control at 10^−7 M was less than 40% or the value of IC50 was less than 50 nM.).
As for `CN(C)c1ccnc(N[C@H]2CC[C@@H](CNCc3c[nH]c4ccccc34)CC2)n1` [compound 1245], the class is given as 3 (Class 3 The value of percent of control at 10^−7 M was more than 60% or the value of IC50 was more than 200 nM.).
The same measure, in the same setting: as for `CCCCCNC(=O)N[C@H]1CC[C@@H](Nc2cc(N(C)C)c3ccccc3n2)CC1` [compound 2133], the figure is 3 (Class 3 The value of percent of control at 10^−7 M was more than 60% or the value of IC50 was more than 200 nM.).

Still in this test, the particulars now being: class by percent of control at 10^−7 M or IC50.
In the case of `COc1ccc(C(=O)N[C@H]2CC[C@@H](Nc3nc(C)cc(N(C)C)n3)CC2)cc1C(F)(F)F` [compound 2981, N-(cis-4-{[4-(dimethylamino)-6-methylpyrimidin-2-yl]amino}cyclohexyl)-4-methoxy-3-(trifluoromethyl)benzamide], the class is listed as 2 (Class 2: The value of percent of control at 10^−7 M was from 40% to 60% or the value of IC′50 was from 50 nM to 200 nM.).
Regarding `Cc1cnc(N[C@H]2CC[C@@H](NC(=O)c3ccccc3C(F)(F)F)CC2)nc1N(C)C` [compound 2918], the class was 3 (Class 3 The value of percent of control at 10^−7 M was more than 60% or the value of IC50 was more than 200 nM.).
Still for that read-out and setting: the same measure for `Cc1ccc(C(=O)NC[C@H]2CC[C@@H](Nc3ncc(C)c(N(C)C)n3)CC2)cc1F` [compound 2695, N-[(cis-4-{[4-(dimethylamino)-5-methylpyrimidin-2-yl]amino}cyclohexyl)methyl]-3-fluoro-4-methylbenzamide]: 2 (Class 2: The value of percent of control at 10^−7 M was from 40% to 60% or the value of IC′50 was from 50 nM to 200 nM.); for `Cc1cc(C(=O)NC[C@H]2CC[C@@H](Nc3ncc(C)c(N(C)C)n3)CC2)ccc1Br` [compound 2703, 4-bromo-N-[(cis-4-{[4-(dimethylamino)-5-methylpyrimidin-2-yl]amino}cyclohexyl)methyl]-3-methylbenzamide]: 1 (Class 1: The value of percent of control at 10^−7 M was less than 40% or the value of IC50 was less than 50 nM.).
Still for that read-out and setting: as for `Cc1cc(N(C)C)nc(N[C@H]2CC[C@@H](C(=O)NCc3cc(Cl)ccc3Cl)CC2)n1` [compound 2808, cis-N-(2,5-dichlorobenzyl)-4-{[4-(dimethylamino)-6-methylpyrimidin-2-yl]amino}cyclohexanecarboxamide], the figure is 1 (Class 1: The value of percent of control at 10^−7 M was less than 40% or the value of IC50 was less than 50 nM.); as for `Cc1cnc(N[C@H]2CC[C@@H](CNC(=O)c3cccnc3Oc3ccc(F)c(Cl)c3)C2)nc1N(C)C` [compound 3019], 2 (Class 2: The value of percent of control at 10^−7 M was from 40% to 60% or the value of IC′50 was from 50 nM to 200 nM.); as for `Cc1cnc(NC[C@H]2CC[C@@H](NC(=O)c3ccc(OC(F)(F)F)cc3)CC2)nc1N(C)C` [compound 2722], 3 (Class 3 The value of percent of control at 10^−7 M was more than 60% or the value of IC50 was more than 200 nM.).
